Measured values reported in paper PMC10135033, “Sulfonamidoboronic Acids as “Cross-Class” Inhibitors of an Expanded-Spectrum Class C Cephalosporinase, ADC-33, and a Class D Carbapenemase, OXA-24/40: Strategic Compound Design to Combat Resistance in Acinetobacter baumannii” (Antibiotics, 2023).
Like-named read-outs stand apart in the source and are kept apart here.

Columns and labels:
[1] = molecular target: ADC-33 (Acinetobacter baumannii, UniProt A7Y407); assay: Ki determination, competition assay with nitrocefin (NCF) as substrate; assay type: biochemical; details: for Ki: corrected for NCF affinity, 5 min pre-incubation, pH 7.4
Method: The affinity of CR167 for the two different β-lactamases was measured in competition assays using nitrocefin (NCF) as the indicator substrate (Table 1).
The binding affinity of each of the compounds 6a–e with ADC-33 and with OXA-24/40 was determined after 5 min pre-incubation of boronic acid and the enzyme, using competition assays with nitrocefin (NCF) as the substrate. […] These compounds differ in three structural characteristics: stereochemistry, the presence of the m-carboxylate on the aromatic ring, and the small chain linked to the chiral center. […] Finally, the smaller the steric hindrance is at the R1 position, the higher the affinity is.
Ki values were determined by using nitrocefin as a reporter substrate and treating the compounds as competitive inhibitors. Steady-state kinetic parameters were determined by combining pure enzyme with nitrocefin in 50 mM NaH2PO4; 25 mM NaHCO3, pH 7.4 (for OXA-24/40); or 50 mM NaH2PO4, pH 7.4 (for ADC-33), at room temperature. Changes in absorbance were measured on a Cary 60 UV−Vis spectrophotometer (Agilent Technologies) and converted to velocity using the change-in-extinction coefficient specific to nitrocefin (ε = 17,400 M^−1·cm^−1 at 482 nm). Initial velocities were fit to the Michaelis–Menten equation, yielding kcat and Km values. Next, the enzyme was challenged with a constant concentration of nitrocefin and increasing amounts of inhibitor. IC50 values were used to calculate Ki values using the Cheng–Prusoff equation as previously described. Specifically, the measurements of the initial velocities were performed with the addition of 100 µM NCF after a 5 min pre-incubation of the enzyme (2 nM) with increasing concentration of the inhibitor [37]. To determine the average velocities (v0), data from three experiments were fit to Equation (1): (1) v0=vu −{vu[I]/IC 50+[I]} where vu represents the NCF uninhibited velocity and IC50 represents the inhibitor concentration that results in a 50% reduction in vu. The Ki value was corrected for the NCF affinity (Km values for both OXA-24/40 and ADC-33) with the Cheng–Prusoff equation (Equation (2)): (2) Ki=IC50/(1+[NCF]/KmNCF)

[2] = tested on: E. coli DH10B, ADC-33 in pBCSK-; assay: Antimicrobial susceptibility testing, broth microdilution; assay type: cell-based; details: Escherichia coli
Method: (§1) Based upon the inhibitor kinetics (Ki determinations), CR167 and the sulfonamidoboronic acid 6b were tested against E. coli strains expressing ADC-7 and ADC-33 cloned into pBCSK- (DH10B) (Table 3).
(§2) blaADC-7 pBCSK- and blaADC-33 pBCSK- were cloned and expressed in E. coli DH10B cells as previously described.
(§3) Testing of susceptibility to standard antibiotics was performed with broth microdilution according to CLSI guidelines. MICs for CAZ, CTX, FEP, and IMI were determined using cation-adjusted Mueller–Hinton broth according to CLSI methods, and CR167 or 6b was used at a fixed concentration of 10 mg/L. All MICs were interpreted according to the 2022 Clinical and Laboratory Standards Institute (CLSI) guidelines.

[3] = tested on: E. coli DH10B, ADC-7 in pBCSK-; assay: as above; assay type: cell-based; details: Escherichia coli
Method: as §1, §2, §3

[4] = molecular target: ADC-7; parameters: method as in PMID 29144724; details: cited from earlier work
[5] = molecular target: class C β-lactamase AmpC; parameters: method as in PMID 20945905, PMID 23043117; details: AmpC from E. coli; cited from earlier work
[6] = tested on: SHV-1; details: cited from earlier work
[7] = tested on: KPC-2; parameters: method as in PMID 26729496; details: cited from earlier work
[8] = tested on: E. coli DH10B pBCSK, blaADC-7; parameters: method as in PMID 29144724; details: with CR167; cited from earlier work

| SMILES | Ki [1] [nM] | MIC ([2]; read-out: MIC of CAZ with BLI) [µg/mL] | MIC ([2]; read-out: MIC of CTX with BLI) [µg/mL] | MIC ([3]; read-out: MIC of CAZ with BLI) [µg/mL] | MIC ([3]; read-out: MIC of CTX with BLI) [µg/mL] | MIC ([3]; read-out: MIC of FEP with BLI) [µg/mL] | Ki [4] [nM] | Ki [5] [nM] | IC50 [6] [nM] | IC50 [7] [nM] | MIC for CAZ with CR167 [8] [mg/L] | fold more potent than 6d, ADC-33 ([1]; ratio of Ki, 6b vs 6d) [fold] |
| --- | --- | --- | --- | --- | --- | --- | --- | --- | --- | --- | --- | --- |
| O=C(O)c1cccc(CS(=O)(=O)NCB(O)O)c1 [CR167] | 57 ± 15 | 64 | 2 | 4 | 2 | 0.12 | 160 | 1.3 | 430 | 200 | 1 | – |
| C[C@@H](NS(=O)(=O)Cc1cccc(C(=O)O)c1)B(O)O [6b] | 790 ± 200 | 64 | 4 | 4 | 2 | 0.12 | – | – | – | – | – | 28 |
